Test: T1 relaxation in human full blood
Type: physicochemical
Conditions: in human full blood at 37° C.

T1 relaxation: about 42 s
Structure (SMILES): CC(=O)[13C](=O)O [^13C1-pyruvate]
